Results reported in ChEMBL document CHEMBL1201862, “PubChem BioAssay data set” (2004).
The source made the active and inactive calls.

Experiments:
[1] = biological target: Intestinal-type alkaline phosphatase (Mus musculus, UniProt P24822); assay: PubChem AID 488785; format: functional
[2] = biological target: T1, Alkaline phosphatase, tissue-nonspecific isozyme (Homo sapiens, UniProt P05186); assay: TNAP enzyme inhibition by screening hits, dose response, selectivity assay for mouse IAP inhibitor project, biochemical, human TNAP, uHTS hits (AID 488906); format: functional
T1 sequence (P05186 whole entry): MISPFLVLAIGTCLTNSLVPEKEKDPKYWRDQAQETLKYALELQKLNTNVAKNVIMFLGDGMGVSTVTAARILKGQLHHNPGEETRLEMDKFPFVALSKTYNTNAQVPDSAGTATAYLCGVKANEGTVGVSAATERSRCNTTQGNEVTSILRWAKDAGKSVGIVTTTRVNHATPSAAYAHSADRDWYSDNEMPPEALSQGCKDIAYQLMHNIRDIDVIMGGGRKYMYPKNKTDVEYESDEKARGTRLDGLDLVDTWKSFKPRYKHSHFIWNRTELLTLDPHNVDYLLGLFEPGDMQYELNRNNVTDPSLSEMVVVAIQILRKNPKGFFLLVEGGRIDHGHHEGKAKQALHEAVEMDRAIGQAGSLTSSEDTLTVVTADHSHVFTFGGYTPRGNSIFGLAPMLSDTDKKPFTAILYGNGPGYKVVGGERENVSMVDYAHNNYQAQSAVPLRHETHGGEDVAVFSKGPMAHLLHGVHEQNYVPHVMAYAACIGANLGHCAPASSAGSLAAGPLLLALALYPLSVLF

[3] = reduction of Shn3 3'UTR-driven luciferase in osteoblasts – cell-based, Clone20 osteoblasts, firefly luciferase, cherry-picked, dose response (AID 624132); format: functional;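 also: firefly luciferase luminescence from reporter carrying the Shn3 3'UTR in osteoblasts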
[4] = loss of viability in HepG2 cells – cell-based, CellTiter-Glo, cherry-picked, cytotoxicity control for Shn3 inhibitor project, dose response (AID 624134); format: functional
[5] = biological target: T1, Alkaline phosphatase, tissue-nonspecific isozyme
[6] = biological target: Intestinal-type alkaline phosphatase (Homo sapiens, UniProt P09923); assay: inhibition of human intestinal alkaline phosphatase – biochemical, dose response (AID 488876); format: functional
Intestinal-type alkaline phosphatase (Homo sapiens, UniProt P09923), sequence (P09923 whole entry): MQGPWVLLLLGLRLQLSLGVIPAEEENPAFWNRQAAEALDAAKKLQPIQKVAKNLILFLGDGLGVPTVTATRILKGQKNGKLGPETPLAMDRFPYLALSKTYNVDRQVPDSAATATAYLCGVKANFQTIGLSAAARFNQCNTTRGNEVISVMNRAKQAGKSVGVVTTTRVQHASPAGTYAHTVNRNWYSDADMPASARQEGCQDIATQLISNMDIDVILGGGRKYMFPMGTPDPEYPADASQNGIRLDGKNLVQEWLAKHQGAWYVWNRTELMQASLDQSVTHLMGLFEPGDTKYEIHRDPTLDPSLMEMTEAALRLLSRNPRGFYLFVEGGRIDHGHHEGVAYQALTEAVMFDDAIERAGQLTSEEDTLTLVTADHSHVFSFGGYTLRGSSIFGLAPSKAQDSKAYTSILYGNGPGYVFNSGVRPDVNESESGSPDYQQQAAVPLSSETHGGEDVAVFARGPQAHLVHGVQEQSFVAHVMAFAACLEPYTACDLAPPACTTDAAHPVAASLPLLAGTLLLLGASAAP

[7] = non-specific 3'UTR reporter inhibition in Clone20-Shn3RL – cell-based, Renilla luciferase, cherry-picked, counter-screen for Shn3 inhibitor project, dose response (AID 624133); format: functional
[8] = biological target: T2, ORF 73 (Human herpesvirus 8, UniProt O40947); assay: KSHV LANA DNA-binding disruption – biochemical, fluorescence polarization, cherry-picked samples, dose response (AID 504725); set-up: species or system Human gammaherpesvirus 8;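 also: fluorescence polarization of a labeled DNA duplex reporting LANA DNA binding; potency is for inhibitors that block LANA binding to the DNA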
T2 sequence (O40947 whole entry): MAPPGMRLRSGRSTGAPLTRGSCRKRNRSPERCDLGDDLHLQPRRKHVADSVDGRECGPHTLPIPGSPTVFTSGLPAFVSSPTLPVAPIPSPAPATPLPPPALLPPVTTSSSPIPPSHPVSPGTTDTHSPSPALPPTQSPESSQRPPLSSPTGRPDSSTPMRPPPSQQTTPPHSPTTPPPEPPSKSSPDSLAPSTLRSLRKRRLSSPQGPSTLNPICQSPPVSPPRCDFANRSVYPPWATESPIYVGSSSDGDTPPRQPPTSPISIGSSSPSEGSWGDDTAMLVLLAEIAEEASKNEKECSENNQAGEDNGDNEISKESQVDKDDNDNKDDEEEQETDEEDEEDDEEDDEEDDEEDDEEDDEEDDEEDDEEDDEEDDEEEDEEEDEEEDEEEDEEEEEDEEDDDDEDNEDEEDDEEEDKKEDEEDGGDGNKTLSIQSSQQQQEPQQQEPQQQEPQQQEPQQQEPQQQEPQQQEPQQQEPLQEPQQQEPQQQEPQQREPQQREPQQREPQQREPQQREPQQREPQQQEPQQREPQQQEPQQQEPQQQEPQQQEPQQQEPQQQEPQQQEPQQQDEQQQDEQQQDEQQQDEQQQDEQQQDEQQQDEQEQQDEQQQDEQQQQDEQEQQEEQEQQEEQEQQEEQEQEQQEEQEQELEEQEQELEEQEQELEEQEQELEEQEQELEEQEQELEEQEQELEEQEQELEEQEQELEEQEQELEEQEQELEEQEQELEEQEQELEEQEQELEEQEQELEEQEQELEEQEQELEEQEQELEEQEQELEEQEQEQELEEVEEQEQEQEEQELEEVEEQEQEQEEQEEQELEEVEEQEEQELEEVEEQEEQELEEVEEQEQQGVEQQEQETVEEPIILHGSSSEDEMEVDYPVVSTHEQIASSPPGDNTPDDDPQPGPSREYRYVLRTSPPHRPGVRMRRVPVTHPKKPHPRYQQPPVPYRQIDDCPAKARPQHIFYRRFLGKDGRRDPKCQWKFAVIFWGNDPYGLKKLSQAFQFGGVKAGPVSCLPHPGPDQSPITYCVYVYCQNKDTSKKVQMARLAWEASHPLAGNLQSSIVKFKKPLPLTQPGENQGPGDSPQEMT

[9] = biological target: T3, Carboxy-terminal domain RNA polymerase II polypeptide A small phosphatase 1 (Homo sapiens, UniProt Q9GZU7); assay: CTDSP1 inhibitors, concentration-response, biochemical, absorbance readout, ultra-high-throughput screen actives (AID 540297); format: functional
T3 sequence (Q9GZU7 whole entry): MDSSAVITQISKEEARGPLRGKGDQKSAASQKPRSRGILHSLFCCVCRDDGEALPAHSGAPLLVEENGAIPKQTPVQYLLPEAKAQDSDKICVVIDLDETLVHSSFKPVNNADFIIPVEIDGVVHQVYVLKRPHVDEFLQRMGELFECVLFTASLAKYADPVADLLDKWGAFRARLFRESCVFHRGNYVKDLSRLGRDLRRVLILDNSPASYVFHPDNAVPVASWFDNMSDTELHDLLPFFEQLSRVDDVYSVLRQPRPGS

[10] = biological target: T4, Histone-lysine N-methyltransferase NSD2 (Homo sapiens, UniProt O96028); format: biochemical
T4 sequence (O96028 whole entry): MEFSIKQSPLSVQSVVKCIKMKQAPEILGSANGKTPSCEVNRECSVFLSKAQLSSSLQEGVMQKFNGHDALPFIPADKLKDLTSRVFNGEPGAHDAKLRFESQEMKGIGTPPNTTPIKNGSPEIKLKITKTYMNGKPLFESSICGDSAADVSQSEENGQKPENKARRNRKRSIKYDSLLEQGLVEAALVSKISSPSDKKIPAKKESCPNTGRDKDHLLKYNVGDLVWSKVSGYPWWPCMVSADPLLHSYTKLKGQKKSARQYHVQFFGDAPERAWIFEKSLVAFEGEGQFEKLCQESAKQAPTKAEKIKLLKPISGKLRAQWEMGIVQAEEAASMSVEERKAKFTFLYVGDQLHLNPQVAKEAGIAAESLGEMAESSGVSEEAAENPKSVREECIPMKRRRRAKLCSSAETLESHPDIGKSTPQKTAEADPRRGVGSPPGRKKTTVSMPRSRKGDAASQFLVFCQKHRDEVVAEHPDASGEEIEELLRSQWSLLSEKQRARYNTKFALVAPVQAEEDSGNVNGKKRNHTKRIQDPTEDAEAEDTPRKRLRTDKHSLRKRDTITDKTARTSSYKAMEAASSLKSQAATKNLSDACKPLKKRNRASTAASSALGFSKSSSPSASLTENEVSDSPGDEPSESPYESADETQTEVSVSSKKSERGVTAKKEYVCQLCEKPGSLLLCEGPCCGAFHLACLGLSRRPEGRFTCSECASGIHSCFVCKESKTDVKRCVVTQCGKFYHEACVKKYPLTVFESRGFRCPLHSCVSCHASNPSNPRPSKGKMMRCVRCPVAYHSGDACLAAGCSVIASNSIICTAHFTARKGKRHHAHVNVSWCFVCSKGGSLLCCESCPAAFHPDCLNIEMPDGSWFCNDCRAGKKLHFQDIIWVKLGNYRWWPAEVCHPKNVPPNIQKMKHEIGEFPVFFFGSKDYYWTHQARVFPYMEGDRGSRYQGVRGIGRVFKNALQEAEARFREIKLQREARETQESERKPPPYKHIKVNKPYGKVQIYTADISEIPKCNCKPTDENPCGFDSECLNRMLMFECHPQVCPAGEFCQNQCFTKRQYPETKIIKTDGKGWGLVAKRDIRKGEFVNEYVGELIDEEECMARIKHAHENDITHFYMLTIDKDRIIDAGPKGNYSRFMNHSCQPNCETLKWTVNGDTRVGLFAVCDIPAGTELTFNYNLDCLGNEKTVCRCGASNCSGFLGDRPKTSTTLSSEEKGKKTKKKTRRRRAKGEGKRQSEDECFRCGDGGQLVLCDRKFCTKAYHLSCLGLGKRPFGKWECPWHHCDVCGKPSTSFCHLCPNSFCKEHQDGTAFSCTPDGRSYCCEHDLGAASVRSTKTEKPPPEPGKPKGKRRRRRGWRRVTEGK

[11] = biological target: DNA (cytosine-5)-methyltransferase 1 (Homo sapiens, UniProt P26358); assay: inhibition of DNA methylation by DNMT1 – biochemical, fluorescent molecular beacon, confirmation (AID 602386); format: functional
DNA (cytosine-5)-methyltransferase 1, sequence (P26358 whole entry): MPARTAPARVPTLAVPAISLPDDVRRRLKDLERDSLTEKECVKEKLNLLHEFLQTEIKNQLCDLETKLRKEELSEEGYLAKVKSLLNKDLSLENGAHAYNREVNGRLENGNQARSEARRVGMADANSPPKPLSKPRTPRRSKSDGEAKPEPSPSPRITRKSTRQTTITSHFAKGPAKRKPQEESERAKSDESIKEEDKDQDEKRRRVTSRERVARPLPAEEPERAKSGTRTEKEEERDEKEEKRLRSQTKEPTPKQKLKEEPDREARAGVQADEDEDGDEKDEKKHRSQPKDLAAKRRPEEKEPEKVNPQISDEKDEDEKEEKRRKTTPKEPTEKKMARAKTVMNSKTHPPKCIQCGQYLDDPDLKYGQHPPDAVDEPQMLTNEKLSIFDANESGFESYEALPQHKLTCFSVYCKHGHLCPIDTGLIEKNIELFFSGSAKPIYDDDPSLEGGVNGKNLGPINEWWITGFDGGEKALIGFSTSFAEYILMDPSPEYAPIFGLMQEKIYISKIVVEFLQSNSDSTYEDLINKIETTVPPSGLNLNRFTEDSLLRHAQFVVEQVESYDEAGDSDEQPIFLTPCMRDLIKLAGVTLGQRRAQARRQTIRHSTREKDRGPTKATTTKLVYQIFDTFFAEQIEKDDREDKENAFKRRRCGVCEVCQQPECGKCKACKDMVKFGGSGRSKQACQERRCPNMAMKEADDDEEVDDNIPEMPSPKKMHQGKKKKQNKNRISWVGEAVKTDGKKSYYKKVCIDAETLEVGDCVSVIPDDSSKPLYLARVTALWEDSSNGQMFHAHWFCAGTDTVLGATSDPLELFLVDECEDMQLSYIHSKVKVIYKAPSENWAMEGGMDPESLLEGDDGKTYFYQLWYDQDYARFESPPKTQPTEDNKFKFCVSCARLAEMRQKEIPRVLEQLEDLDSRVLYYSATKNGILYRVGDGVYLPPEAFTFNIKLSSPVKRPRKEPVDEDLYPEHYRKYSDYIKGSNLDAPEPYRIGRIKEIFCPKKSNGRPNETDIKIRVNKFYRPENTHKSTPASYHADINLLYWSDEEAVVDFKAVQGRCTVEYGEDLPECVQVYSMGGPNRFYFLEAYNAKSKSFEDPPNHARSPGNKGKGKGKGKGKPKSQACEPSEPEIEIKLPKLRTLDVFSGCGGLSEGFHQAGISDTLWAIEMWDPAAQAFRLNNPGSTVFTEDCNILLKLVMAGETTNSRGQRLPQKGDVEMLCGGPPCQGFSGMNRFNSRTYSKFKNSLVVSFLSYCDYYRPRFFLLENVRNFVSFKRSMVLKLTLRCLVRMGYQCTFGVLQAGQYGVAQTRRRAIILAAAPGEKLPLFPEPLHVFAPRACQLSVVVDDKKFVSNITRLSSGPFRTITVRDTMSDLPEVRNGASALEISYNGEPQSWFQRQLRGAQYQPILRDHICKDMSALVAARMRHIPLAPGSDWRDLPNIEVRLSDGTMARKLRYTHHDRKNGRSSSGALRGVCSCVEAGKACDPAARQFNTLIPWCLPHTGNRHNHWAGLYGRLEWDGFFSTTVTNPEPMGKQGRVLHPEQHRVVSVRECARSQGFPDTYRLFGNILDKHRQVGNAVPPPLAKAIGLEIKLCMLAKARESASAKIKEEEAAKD

[12] = biological target: Leucine aminopeptidase (Plasmodium falciparum 3D7, UniProt Q8IL11); assay: P. falciparum M17LAP inhibitors, primary screen, biochemical, fluorogenic H-Leu-NHMec substrate, 1536-well (AID 1619); format: functional
Leucine aminopeptidase, sequence (Q8IL11 whole entry): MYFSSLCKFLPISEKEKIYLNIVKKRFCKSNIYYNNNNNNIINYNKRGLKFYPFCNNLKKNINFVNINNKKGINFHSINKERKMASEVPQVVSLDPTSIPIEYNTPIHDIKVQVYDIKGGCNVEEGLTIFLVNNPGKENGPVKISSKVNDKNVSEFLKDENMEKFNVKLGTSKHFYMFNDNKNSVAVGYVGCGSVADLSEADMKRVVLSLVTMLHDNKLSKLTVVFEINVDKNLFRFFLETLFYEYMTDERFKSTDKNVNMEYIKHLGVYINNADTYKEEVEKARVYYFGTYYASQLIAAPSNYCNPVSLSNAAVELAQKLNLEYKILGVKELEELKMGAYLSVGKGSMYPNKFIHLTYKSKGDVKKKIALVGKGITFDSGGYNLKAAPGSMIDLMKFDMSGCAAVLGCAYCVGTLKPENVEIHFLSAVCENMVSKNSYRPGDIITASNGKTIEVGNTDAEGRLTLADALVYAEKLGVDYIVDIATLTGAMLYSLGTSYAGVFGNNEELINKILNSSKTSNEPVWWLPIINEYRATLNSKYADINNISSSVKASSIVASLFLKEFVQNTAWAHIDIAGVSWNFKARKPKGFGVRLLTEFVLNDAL

[13] = biological target: T5, Long-chain-fatty-acid--AMP ligase FadD28 (Mycobacterium tuberculosis, UniProt P9WQ59); assay: Fluorescence polarization aasay to screen for inhibitors that compete for the binding of FadD28 to a bisubstrate Measured in Biochemical System Using Plate Reader - 2147-01_Inhibitor_Dose_CherryPick_Activity.; format: functional, Mycobacterium tuberculosis H37Rv
T5 sequence (P9WQ59 whole entry): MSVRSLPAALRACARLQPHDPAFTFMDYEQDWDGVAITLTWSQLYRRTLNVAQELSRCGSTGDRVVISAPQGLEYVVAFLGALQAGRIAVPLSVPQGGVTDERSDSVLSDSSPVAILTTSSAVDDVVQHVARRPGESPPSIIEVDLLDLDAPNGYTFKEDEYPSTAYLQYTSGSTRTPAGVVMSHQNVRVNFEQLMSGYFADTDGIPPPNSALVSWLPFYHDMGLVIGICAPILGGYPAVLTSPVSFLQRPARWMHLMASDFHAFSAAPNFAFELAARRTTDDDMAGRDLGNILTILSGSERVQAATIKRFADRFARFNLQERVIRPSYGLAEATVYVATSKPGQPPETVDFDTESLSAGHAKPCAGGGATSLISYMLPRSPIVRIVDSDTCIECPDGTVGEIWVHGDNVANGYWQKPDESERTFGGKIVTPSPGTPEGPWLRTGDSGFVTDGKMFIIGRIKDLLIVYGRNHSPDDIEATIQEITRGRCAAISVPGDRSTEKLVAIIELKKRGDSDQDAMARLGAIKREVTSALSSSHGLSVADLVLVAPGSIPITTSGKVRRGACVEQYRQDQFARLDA

[14] = biological target: Bifunctional protein GlmU (Mycobacterium tuberculosis, UniProt P9WMN3); assay: Inhibitors of Mycobacterial Glucosamine-1-phosphate acetyl transferase (GlmU). Secondary screen.; set-up: species or system Mycobacterium tuberculosis H37Rv
Bifunctional protein GlmU, sequence (P9WMN3 whole entry): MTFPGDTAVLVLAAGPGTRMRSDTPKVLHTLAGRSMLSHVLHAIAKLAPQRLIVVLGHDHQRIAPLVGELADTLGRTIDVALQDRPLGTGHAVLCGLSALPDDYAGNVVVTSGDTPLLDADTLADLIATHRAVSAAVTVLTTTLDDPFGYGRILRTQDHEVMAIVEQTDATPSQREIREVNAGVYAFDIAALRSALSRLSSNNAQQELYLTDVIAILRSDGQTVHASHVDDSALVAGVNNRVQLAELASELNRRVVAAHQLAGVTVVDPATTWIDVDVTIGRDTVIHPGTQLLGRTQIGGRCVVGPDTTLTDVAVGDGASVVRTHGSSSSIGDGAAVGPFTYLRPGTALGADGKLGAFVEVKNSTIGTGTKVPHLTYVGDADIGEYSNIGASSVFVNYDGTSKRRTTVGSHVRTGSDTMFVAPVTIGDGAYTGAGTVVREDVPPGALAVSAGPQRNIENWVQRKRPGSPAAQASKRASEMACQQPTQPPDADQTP

[15] = biological target: T6, Estrogen receptor beta (Homo sapiens, UniProt Q92731);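 also: recombinant ER-beta bound to coactivator SRC1 peptide in presence of estradiol agonist; inhibitors block coactivator peptide binding and lower the FRET signal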
T6 sequence (Q92731 whole entry): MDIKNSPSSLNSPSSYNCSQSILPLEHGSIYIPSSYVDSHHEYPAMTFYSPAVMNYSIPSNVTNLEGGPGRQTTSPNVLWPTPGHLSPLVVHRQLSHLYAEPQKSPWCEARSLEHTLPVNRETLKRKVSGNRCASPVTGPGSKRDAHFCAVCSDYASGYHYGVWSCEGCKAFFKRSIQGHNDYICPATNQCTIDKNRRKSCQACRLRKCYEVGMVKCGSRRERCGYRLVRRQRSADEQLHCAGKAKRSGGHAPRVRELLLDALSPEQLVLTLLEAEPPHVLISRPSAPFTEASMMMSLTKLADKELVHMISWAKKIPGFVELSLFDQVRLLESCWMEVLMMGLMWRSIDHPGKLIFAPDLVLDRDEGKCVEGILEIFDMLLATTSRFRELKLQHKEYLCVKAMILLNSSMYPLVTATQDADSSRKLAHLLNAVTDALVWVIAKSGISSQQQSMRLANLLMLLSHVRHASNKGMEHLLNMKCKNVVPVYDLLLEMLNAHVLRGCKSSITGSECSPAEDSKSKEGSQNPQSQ

[16] = biological target: T7, Estrogen receptor (Homo sapiens, UniProt P03372);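 also: potency for inhibiting coactivator peptide recruitment to the receptor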
T7 sequence (P03372 whole entry): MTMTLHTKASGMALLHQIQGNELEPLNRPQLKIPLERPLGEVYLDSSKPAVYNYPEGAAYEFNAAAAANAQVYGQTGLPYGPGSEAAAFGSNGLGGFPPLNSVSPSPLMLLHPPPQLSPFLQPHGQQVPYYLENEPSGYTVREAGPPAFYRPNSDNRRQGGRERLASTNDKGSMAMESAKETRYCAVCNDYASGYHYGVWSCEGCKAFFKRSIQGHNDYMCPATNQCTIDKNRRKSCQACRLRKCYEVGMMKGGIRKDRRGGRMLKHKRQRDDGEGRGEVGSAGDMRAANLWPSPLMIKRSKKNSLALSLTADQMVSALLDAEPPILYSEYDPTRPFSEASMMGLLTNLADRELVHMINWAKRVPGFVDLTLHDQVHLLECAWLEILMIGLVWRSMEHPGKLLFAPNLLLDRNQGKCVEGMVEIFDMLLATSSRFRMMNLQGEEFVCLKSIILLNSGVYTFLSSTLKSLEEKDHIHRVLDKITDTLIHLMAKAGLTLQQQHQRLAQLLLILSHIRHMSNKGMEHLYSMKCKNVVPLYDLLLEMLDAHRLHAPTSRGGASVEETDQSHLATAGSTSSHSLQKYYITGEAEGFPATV

[17] = biological target: T6, Estrogen receptor beta; assay: blockers of SRC-3 recruitment to ERβ – biochemical, ELISA, streptavidin-HRP readout, orthogonal assay, confirmation (AID 1060)

Intestinal-type alkaline phosphatase (Mus musculus, UniProt P24822), sequence (P24822 whole entry): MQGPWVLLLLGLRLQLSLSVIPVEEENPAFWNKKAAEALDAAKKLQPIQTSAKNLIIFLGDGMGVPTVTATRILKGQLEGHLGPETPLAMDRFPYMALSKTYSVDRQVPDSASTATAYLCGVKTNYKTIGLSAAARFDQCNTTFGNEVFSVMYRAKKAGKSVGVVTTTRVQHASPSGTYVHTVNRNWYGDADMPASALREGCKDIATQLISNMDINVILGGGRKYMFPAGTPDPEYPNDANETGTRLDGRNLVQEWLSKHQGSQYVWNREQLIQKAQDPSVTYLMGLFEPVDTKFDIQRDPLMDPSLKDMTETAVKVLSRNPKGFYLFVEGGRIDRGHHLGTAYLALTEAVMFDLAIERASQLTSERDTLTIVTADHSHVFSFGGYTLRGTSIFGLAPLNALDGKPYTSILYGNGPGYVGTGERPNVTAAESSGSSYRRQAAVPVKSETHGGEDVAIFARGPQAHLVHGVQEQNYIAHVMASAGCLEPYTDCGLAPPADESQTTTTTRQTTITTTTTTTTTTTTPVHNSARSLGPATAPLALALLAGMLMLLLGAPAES

SMILES | IC50 [1] | IC50 [2] | EC50 [5] | IC50 [6] | IC50 [9] | IC50 [12] | IC50 [15] | IC50 [16] | IC50 [17] | other results
Cc1ccc(N=C(N)Nc2nc(C)cc(N3CCCCC3)n2)c(C)c1 | 3.34 µM (active) | 32.1 µM (active) | 71.7 µM (not active) | 70.1 µM (active) | – | – | – | – | – | AC50 [3]: 0.891 µM (active); AC50 [4]: 5.74 µM (active); AC50 [7]: 0.639 µM (active)
Cc1cc(/C=C2\C(=O)NC(=O)N(Cc3ccccc3)C2=O)c(C)n1-c1ccc(Cl)c(C(=O)O)c1 | – | – | – | – | 1.02 µM (active) | 72.7 µM (active) | – | – | – | AC50 [8]: 76.2 µM (active); AC50 [10]: 5.47 µM (active); IC50 [11]: 3.35 µM (active); AC50 [13]: 35.6 µM (active); IC50 [14]: 71.9 µM (active)
CC(C)CN=C(S)NNC(=O)c1ccc2c(c1)OCO2 | – | – | 40.7 µM (active) | – | – | – | – | – | – | –
CC1CCN(S(=O)(=O)c2ccc(NC(=O)Cc3cccs3)cc2)CC1 | – | – | – | – | 3.87 µM (active) | – | 5.52 µM (active) | 9.49 µM (active) | 0.127 µM (not active) | –
CCCCc1ccc(C(=O)NC(C(=O)O)C(C)C)cc1 (stereo unspecified) | – | – | – | – | – | 4.71 µM (active) | – | – | – | –
CN(c1ccccc1C(=O)O)S(=O)(=O)c1ccc2c3c(cccc13)C(=O)N2 | 11.3 µM (active) | > 100 µM (inactive) | – | > 100 µM (inactive) | – | – | 3.85 µM (active) | 18.7 µM (active) | 6.16 µM (not active) | –
